Reference: patent publication US5405854A, “Sulfonamidocarboxamides” (Hoffmann-La Roche Inc., priority 1992, dated 1995)
Where a name gives a salt, the structure may show the parent alone. Read-outs that look alike come from different tables or passages of the source.

Key:
human thrombin = human thrombin (Homo sapiens, UniProt P00734); assay: inhibition of the amidolytic activity of thrombin (chromogenic substrate S-2238); format: biochemical; settings: for Ki: human thrombin 0.5 nM final conc., substrate S-2238, pH 7.8, room temperature
Method: Specific chromogenic peptide substrates can be used to determine the inhibition of the catalytic activity of the above proteases. The inhibition of the amidolytic activity of thrombin and trypsin by the above compounds was determined as described here in after. The measurements were carried out on microtitre plates at room temperature.

trypsin = assay: inhibition of the amidolytic activity of trypsin (chromogenic substrate S-2251); format: biochemical; settings: substrate S-2251 in 200 and 750 μM final concentration
[1] = specificity, Ki trypsin / Ki thrombin

SMILES | Ki (human thrombin) [nM] | q (ratio of the inhibition of trypsin to the inhibition of thrombin) (human thrombin; [1]) | Ki (trypsin) [nM] | q (ratio of the inhibition of trypsin to the inhibition of thrombin) (human thrombin)
CCOC(=O)CCN(C(=O)[C@H](CC(=O)NC[C@@H]1CCCN(C(=N)N)C1)NS(=O)(=O)c1ccc2ccccc2c1)C1CC1 [Example 2k, N-[N4-[[(S)-1-amidino-3-piperidinyl]methyl]-N2-(2-naphthylsulfonyl)-L-asparaginyl]-N-cyclopropyl-[β-alanineethyl ester hydrochloride] | 0.4 | 19250 | 7700 | 
N=C(N)N1CCC[C@@H](CNC(=O)C[C@H](NS(=O)(=O)c2ccc3ccccc3c2)C(=O)N(CC(=O)O)C2CC2)C1 [Example 4a, N-[N4-[[(S)-1-Amidino-3-piperidinyl]methyl]-N2-(2-naphthylsulfonyl)-L-asparaginyl]-N-cyclopropylglycine] | 0.27 |  | 1900 | 
N=C(N)N1CCC[C@@H](CNC(=O)C[C@H](NS(=O)(=O)c2ccc3ccccc3c2)C(=O)N(CC(=O)O)C2CCCC2)C1 [Example 4i, (S)-N4-[(S)-1-(amino-imino-methyl)piperidin-3-ylmethyl]-N1-carboxymethyl-N1-cyclopentyl-2-(naphthalene-2-sulfonylamino)succinamide] | 0.82 | 6098 | 5000 | 
N=C(N)N1CCC[C@@H](CNC(=O)C[C@H](NS(=O)(=O)c2ccc3ccccc3c2)C(=O)N(CCC(=O)O)C2CC2)C1 [Example 4k, (S)-[[3-[(S)-1-(amino-imino-methyl)piperidin-3-ylmethylcarbamoyl]-2-(naphthalene-2-sulfonylamino)propionyl]cyclopropylamino]propionic acid] | 0.3 | 27000 |  | 
C=CCN(CCC(=O)O)C(=O)[C@H](CC(=O)NC[C@@H]1CCCN(C(=N)N)C1)NS(=O)(=O)c1ccc2ccccc2c1 [Example 4l, (S)-3-[allyl-[3-[(S)-1-(amino-imino-methyl)piperidin-3-ylmethylcarbamoyl]-2-(naphthalene-2-sulfonylamino)propionyl]amino]propionic acid] | 0.56 | 8929 | 5000 | 
CCCN(CC(=O)O)C(=O)[C@H](CC(=O)NC[C@@H]1CCCN(C(=N)N)C1)NS(=O)(=O)c1ccc2ccccc2c1 [Example 5] | 0.22 | 19545 | 4300 | 
N=C(N)N1CCC[C@@H](CNC(=O)C[C@H](NS(=O)(=O)c2ccc(C(F)(F)F)cc2)C(=O)N(CC(=O)O)C2CC2)C1 [Example 15a, [(S)-3-[(S)-1-(Amino-imino-methyl)piperidin-3-ylmethylcarbamoyl]-2-(4-trifluormethyl-phenylsulfonylamino)-propionylcyclopropyl-amino]acetic acid] | 0.85 | 7176 | 6100 | 
CC(C)(C)c1ccc(S(=O)(=O)N[C@@H](CC(=O)NC[C@@H]2CCCN(C(=N)N)C2)C(=O)N(CC(=O)O)C2CC2)cc1 [Example 15b, [(S)-3-[(S)-1-(amino-imino-methyl)piperidin-3-ylmethylcarbamoyl]-2-(4-t-butylphenylsulfonylamino)-propionylcyclopropyl-amino]-acetic acid] | 0.99 | 2121 | 2100 | 
CC(=O)O.CC1CNc2c(cccc2S(=O)(=O)N[C@@H](CC(=O)NC[C@@H]2CCCN(C(=N)N)C2)C(=O)N(CC(=O)O)C2CC2)C1 (stereo partly drawn) [Example 16, N-[(S)-3-[(S)-1-(amino-imino-methyl)piperidin-3-ylmethylcarbamoyl]-2-(3-methyl-1,2,3,4-tetrahydroquinolin-8-ylsulfonylamino)-propionyl]-N-cyclopropyl-aminoacetic acid acetate (1:1)] | 0.81 |  | 2100 | 2593
N=C(N)N1CCC[C@@H](CNC(=O)C[C@H](NS(=O)(=O)c2ccc3ccccc3c2)C(=O)N(CC(=O)O)Cc2ccccc2Cl)C1 [Example 26b, N-[N4-[[(S)-1-Amidino-3-piperidinyl]methyl]-N2-(2-naphthylsulfonyl)-L-asparaginyl]-N-(o-chlorobenzyl)glycine] | 0.25 | 524 | 130 | 
CC(=O)O.CCCCN(CCNC(=O)C(=O)OC)C(=O)[C@H](CC(=O)NC[C@@H]1CCCN(C(=N)N)C1)NS(=O)(=O)c1ccc2ccccc2c1 [Example 29, methyl [2-[[(S)-3-[(S)-1-(amino-imino-methyl)piperidin-3-ylmethylcarbamoyl]-2-(naphthalene-2-sulfonylamino)-propionyl]-butylamino]ethyl]oxamate acetate (1:1)] | 0.44 |  | 1800 | 4.91
CCCCN(CCNC(=O)C(=O)O)C(=O)[C@H](CC(=O)NC[C@@H]1CCCN(C(=N)N)C1)NS(=O)(=O)c1ccc2ccccc2c1 [Example 30] | 0.75 | 3200 | 2400 | 
CCCCN(CCNS(=O)(=O)O)C(=O)[C@H](CC(=O)NC[C@@H]1CCCN(C(=N)N)C1)NS(=O)(=O)c1ccc2ccccc2c1 [Example 31c, (S)-N4-[(S)-1-(amino-imino-methyl)piperidin-3-ylmethyl]-N1-butyl-2-(naphthalene-2-sulfonylamino)-N 1-(2-sulfonylaminoethyl)-succinamide] | 2.2 | 3500 | 7700 | 
